Laboratory results taken from patent US10407467B2, “Polymyxin derivatives and their use in combination therapy together with different antibiotics” (priority 2013, dated 2019).
Where two headings read alike, the source gives them in different places. Marks after values point to notes of the source that are not given here. Bridge positions count the residues as written; N and C are the ends. Square brackets hold non-standard residues; d marks the D form. Peptide text beside a SMILES is read from it. * marks the point of attachment. ξ: configuration not given here. ξβ3hGly(cHex) = NC(CC(=O)*)C1CCCCC1; Thr(3ξ) = CC(O)[C@H](N)C(=O)O; Dab = NCC[C@H](N)C(=O)O

Tests used:
[1] = test system: Klebsiella pneumoniae ATCC10031; details: 10 mg/kg/day, neutropenic mice thigh infection
[2] = rats, 8 mg/kg BID regimen, seven days, compared to Colistin at the same dose regimen
Description: After one week acclimatisation, male Sprague-Dawley rats were surgically prepared with a jugular cannula and were housed individually, as required, either in pre-assigned housing cages or metabolic cages. Colistin and the Example Compounds were prepared in saline.
Compounds were introduced via the jugular cannula twice a day 7 hours apart for seven days. Each dose was increased progressively for three days up to the top dose that was then administered until termination of the study. Twenty-four hour urine collection (on ice) was performed at pre-dose and on days 4 and 7. The dose regimen is set out in Table 10 below.
The doses in the table are indicated in mg drug base/kg (free base).
The activity in urine of the N-acetyl-beta-D-glucosaminidase (NAG) was determined spectrophotometrically using the NAG assay kit from Roche Applied Science. Biomarkers of kidney injury were determined using the Kidney Injury Panel II from the Multi-Spot® Assay System (Meso Scale Discovery).

P. aeruginosa ATCC27853 = assay type: in vivo, Pseudomonas aeruginosa; details: 1:1 with rifampicin at a total dose of 5 mg/kg, IV at 1, 3.5 and 6 hours
Description: Compounds were administered in solution by intravenous (IV) bolus injection into the lateral tail vein. […] At 1 hour post infection, 4 animals were humanely euthanized using pentabarbitone overdose to provide a pre-treatment control group. At 9 hours post infection, the clinical condition of all animals was assessed prior to them being humanely euthanized by pentabarbitone overdose. Animal weight was determined before both thighs were removed and weighed individually. Individual thigh tissue samples were homogenized in ice cold sterile phosphate buffered saline. Thigh homogenates were then quantitatively cultured onto CLED agar and incubated at 37° C. for 24 hours before colonies were counted.

E. coli ATCC25922 = test system: E. coli ATCC25922
Description: Mice were rendered temporarily neutropenic by immunosuppression with cyclophosphamide at 150 mg/kg 4 days before infection and 100 mg/kg 1 day before infection by intraperitoneal injection.
Compounds were administered in solution by intravenous (IV) injection into the lateral tail vein. […] The vehicle control group was treated with vehicle (0.9% saline for injection) also at 10 mL/kg IV thrice at 1, 3.5 and 6 hours post infection.
At 1 hour post infection, 4 animals were humanely euthanized using pentabarbitone overdose to provide a pre-treatment control group. At 9 hours post infection, the clinical condition of all animals was assessed prior to them being humanely euthanized by pentabarbitone overdose. Animal weight was determined before both thighs were removed and weighed individually. Individual thigh tissue samples were homogenized in ice cold sterile phosphate buffered saline. Thigh homogenates were then quantitatively cultured onto CLED agar and incubated at 37° C. for 24 hours before colonies were counted.

HK-2 cell line = assay: In vitro renal cell toxicity assay (resazurin reduction); assay type: cell-based, human; details: HK-2 cells, 24 h, resazurin reduction; mean values of up to 6 independent studies

CC(C)C[C@@H]1NC(=O)[C@@H](Cc2ccccc2)NC(=O)[C@H](CCN)NC(=O)[C@@H](NC(=O)[C@H](CCN)NC(=O)[C@@H](NC(=O)CC(N)C2CCCCC2)C(C)O)CCNC(=O)[C@H](C(C)O)NC(=O)[C@H](CCN)NC(=O)[C@H](CCN)NC1=O (stereo partly drawn) [Example 10, [3(R,S)-3-Amino-3-cyclohexane-propanoyl]Polymyxin B nonapeptide] ({ξβ3hGly(cHex)}-[Thr(3ξ)][Dab][Dab][Dab][dF]L[Dab][Dab][Thr(3ξ)]; lactam 3-C)
reduction in bacterial counts [1]: approx. 2 log10 | levels of the renal biomarkers NAG, albumin and cystatin C in urine [2]: significantly reduced levels

Polymyxin B [reference compound]
log reduction in bacterial counts compared to non-treated control (P. aeruginosa ATCC27853): 5.37 log | log reduction in bacterial counts compared to the non-treated control (E. coli ATCC25922; 1:1 combination with Rifampicin at 4 mg/Kg total dose): 4.8 log | Log reduction from vehicle (CFU/g) (E. coli ATCC25922; Table 9, monotherapy 0.125 mg/kg IV at 1, 3.5 and 6 h post infection, 9 h): −0.36 log CFU/g | Log reduction from vehicle (CFU/g) (E. coli ATCC25922; Table 9, monotherapy 0.5 mg/kg IV at 1, 3.5 and 6 h post infection, 9 h): 1.93 log CFU/g | Log reduction from vehicle (CFU/g) (E. coli ATCC25922; Table 12, alone 4 mg/kg (sulfate salt) IV): 3.61 log CFU/g | IC50 HK-2 cells (HK-2 cell line): 11^b μg/mL | Log reduction from vehicle (CFU/g) (P. aeruginosa ATCC 27853; Table 14, 1 mg/kg (sulfate salt) IV at 1, 3.5 and 6 h, 9 h): 0.58 log CFU/g | Log reduction from vehicle (CFU/g) (P. aeruginosa ATCC 27853; Table 14, 2 mg/kg (sulfate salt) IV at 1, 3.5 and 6 h, 9 h): 1.67 log CFU/g | Log reduction from vehicle (CFU/g) (P. aeruginosa ATCC 27853; Table 14, 4 mg/kg (sulfate salt) IV at 1, 3.5 and 6 h, 9 h): 5.09 log CFU/g | Log reduction from vehicle (CFU/g) (P. aeruginosa ATCC 27853; Table 15, 1 mg/kg (sulfate salt) IV, 9 h): −0.12 log CFU/g | Log reduction from vehicle (CFU/g) (P. aeruginosa ATCC 27853; Table 15, 2 mg/kg (sulfate salt) IV, 9 h): 1.40 log CFU/g | Log reduction from vehicle (CFU/g) (P. aeruginosa ATCC 27853; Table 15, 4 mg/kg (sulfate salt) IV, 9 h): 3.41 log CFU/g | Log reduction from vehicle (CFU/g) (P. aeruginosa ATCC 27853; Table 16, 0.85 mg/kg free base equivalent, infection level ~1×10^4 CFU/mouse thigh): 1.19 log CFU/g | Log reduction from vehicle (CFU/g) (P. aeruginosa ATCC 27853; Table 16, 3.4 mg/kg free base equivalent, infection level ~1×10^4 CFU/mouse thigh): 4.23 log CFU/g
